Source: article PMC6631369 (Anti-cancer drugs, 2018)

Key:
[1] = no reference given; cited from earlier work
UGT1A1 = system: UGT1A1; set-up: species or system patients; settings: UGT1A1*28 and *60; population model ref 24
[2] = cited from earlier work

## COc1cc([C@@H]2c3cc4c(cc3[C@@H](O[C@@H]3O[C@@H]5CO[C@@H](C)O[C@H]5[C@H](O)[C@H]3O)[C@H]3COC(=O)[C@H]23)OCO4)cc(OC)c1O [etoposide]
[1]
  dose excreted unchanged renally: 56%

## O=C(/C=C/c1cccc(S(=O)(=O)Nc2ccccc2)c1)NO [belinostat]
UGT1A1
  model-predicted clearance versus number of variant copies of UGT1A1: decreasing trend with the number of variant copies of UGT1A1
[2]
  half-life: ~ 1 h
